In patent US20220142164A1, “HERBICIDAL COMPOUNDS” (SYNGENTA CROP PROTECTION AG, priority 2019, published 2022) one finds pest or weed control data, which are given here for three molecules.

Common to all, as to test: Post-emergence efficacy, glasshouse pot test
Holding throughout (assay type): in vivo
Common to all, as to details: 312 h, post-emergence spray, Application Rate 500 g/Ha, evaluated after 13 days, 100=total damage to plant, 0=no damage to plant

One experiment deals with Setaria faberi (SETFA). The procedure: (§1) Seeds of a variety of test species were sown in standard soil in pots. After cultivation for 14 days (post-emergence) under controlled conditions in a glasshouse (at 24/16° C., day/night; 14 hours light; 65% humidity), the plants were sprayed with an aqueous spray solution derived from the dissolution of the technical active ingredient formula (I) in a small amount of acetone and a special solvent and emulsifier mixture referred to as IF50 (11.12% Emulsogen EL360 TM+44.44% N-methylpyrrolidone+44.44% Dowanol DPM glycol ether), to create a 50 g/I solution which was then diluted to required concentration using 0.25% or 1% Empicol ESC70 (Sodium lauryl ether sulphate)+1% ammonium sulphate as diluent. The test plants were then grown in a glasshouse under controlled conditions (at 24/16° C., day/night; 14 hours light; 65% humidity) and watered twice daily. After 13 days the test was evaluated (100=total damage to plant; 0=no damage to plant). Ipomoea hederacea (IPOHE), Euphorbia heterophylla (EPHHL), Chenopodium album (CHEAL), Amaranthus palmeri (AMAPA), Lolium perenne (LOLPE), Digitaria sanguinalis (DIGSA), Eleusine indica (ELEIN), Echinochloa crus-galli (ECHCG), Setaria faberi (SETFA)

Experiment [1] deals with Euphorbia heterophylla (EPHHL). The procedure:
as §1

The test system of experiment [2] is Echinochloa crus-galli (ECHCG). The procedure: as §1
Experiment [3] has as its system Ipomoea hederacea (IPOHE). As for the experimental part: as §1
A further experiment relates to Eleusine indica (ELEIN). As for the experimental part: as §1
The subject of experiment [4] is Chenopodium album (CHEAL). As for the experimental part: as §1
Experiment [5] deals with Amaranthus palmeri (AMAPA). The procedure: as §1
For the next experiment, the system named is Lolium perenne (LOLPE). The procedure:
as §1

Experiment [6] concerns Digitaria sanguinalis (DIGSA). As for the experimental part: as §1

On to `O=C(O)CS(=O)(=O)C[n+]1ccc(-c2ncns2)cc1` [Compound A19], for which the pest or weed control (in general, the degree to which the test organism was suppressed or injured, in per cent) at 500 g/ha is 20% with Setaria faberi (SETFA); 30% in experiment [1]; 30% in experiment [2]; 10% in experiment [3]; 30% in the experiment with Eleusine indica (ELEIN); 50% in [4]. For the same molecule, the pest or weed control at 500 g/ha worked out at 40% in experiment [5], 20% in the experiment on Lolium perenne (LOLPE) and 30% in experiment [6].
In the case of `O=C(O)CCSC[n+]1ccc(-c2ncns2)cc1` [Compound A15, 3-[[4-(1,2,4-thiadiazol-5-yl)pyridin-1-ium-1-yl]methylsulfanyl]propanoic acid chloride], the pest or weed control at 500 g/ha in the experiment with Setaria faberi (SETFA) turned out to be 100%; in [1], 40%; in experiment [2] it was 100%; in experiment [3], 40%; in the experiment with Eleusine indica (ELEIN) it was 90%; in [4] it was 90%. The results for the pest or weed control at 500 g/ha (in experiment [5]; in the experiment with Lolium perenne (LOLPE); in [6]) were 100%, 50% and 100%, respectively.
Take `CC(C)(NC(=O)C[n+]1ccc(-c2ncns2)cc1)C(=O)O` [Compound A17]: the pest or weed control at 500 g/ha in the experiment with Setaria faberi (SETFA) is 80%; in experiment [1], 70%; in [2], 60%; in [3], 40%; with Eleusine indica (ELEIN), 60%; in experiment [4], 50%. Also, the values for the pest or weed control at 500 g/ha (in experiment [5]; in the experiment on Lolium perenne (LOLPE); in experiment [6]) were 100%, 30% and 80%, respectively.
